Consider two compounds from patent US20120269870A1, “SWITCHABLE POLYMERS AND SURFACES WITH REVERSIBLY SWITCHABLE PROPERTIES” (University of Washington through its Center for …, priority 2011, published 2012).

This data set in a line: Kinetic study between CB—OH and CB-Ring by 1H NMR. It counts as physicochemical. As to conditions: for half-life of CB-Ring (hydrolysis to CB—OH): buffer. The procedure:
Kinetic study between CB—OH and CB-Ring. The equilibrium conversion between the CB—OH and CB-Ring was monitored by ^1H NMR at various time points. To monitor the formation of CB-Ring, CB—OH powder was initially dissolved in TFA-d at a concentration of 0.2 M. The conversion from CB-Ring to CB—OH was studied by dissolving CB-Ring in either pH 7.3 or pH 10 buffer at a concentration of 0.2 M. These two buffers were made from 200 mM Na2CO3 in D2O and were titrated with DCl. Conversion was calculated based on the ratio of the characteristic peak for CB-Ring (1H, CH2═C(CH3)COOCH2CH(O—)CH2—) and a common peak of both structures (6H, —CH2N(CH3)2CH2—). In FIG. 5, the final conversion within 160 min was about 93% for all three conditions investigated. Because the integration error for ^1H NMR can be as large as 10%, a value of 93% essentially represented an almost full conversion.
Kinetic study between CB—OH and CB-Ring in acetic acid/pH=7.3 buffer. ^1H NMR was used to monitor the equilibrium conversion between the CB—OH and CB-Ring. CB—OH monomer was initially dissolved in [D]acetic acid at a concentration of 0.2 M. At various time points, the spectra were collected, and composition for the formed CB-Ring was calculated based on the ratio of the characteristic peaks for CB-Ring and CB—OH (FIG. 16). The equilibrated product (a mixture of CB-Ring and CB—OH) in [D]acetic acid was precipitated in ethyl ether, vacuum dried, and placed into pH=7.3 buffer made from 200 mM Na2CO3 in D2O titrated with DCl. CB-Ring was hydrolyzed to CB—OH at this condition and the composition for the CB-Ring at various time points were measured (FIG. 16).

By half-life is commonly meant how long it takes for the measured level to halve.

Take `C=C(C)C(=O)OCC1C[N+](C)(C)CC(=O)O1` (centres unmarked) [CB-Ring, 2-(Methacryloyloxymethyl)-4,4-dimethyl-6-oxomorpholin-4-ium]: the “half-life of CB-Ring (hydrolysis to CB—OH)” value is, setting by setting: (pH 7) “about 4 min”; (pH 10) < 1 min. The “final conversion to CB—OH within 160 min” value is listed as “about 93%” (pH 7.3 buffer (200 mM Na2CO3 in D2O titrated with DCl)) and “about 93%” (pH 10 buffer (200 mM Na2CO3 in D2O titrated with DCl)). The “time to nearly full conversion (hydrolysis) of CB-Ring back to CB—OH” value (pH 7.3 buffer, product equilibrated 40 h in [D]HAc) is reported as “less than 10 min”. Moreover, under “pH 10”, the “time to complete conversion to the zwitterionic form” value is reported as “less than 6 min”.

Turning to `C=C(C)C(=O)OCC(O)C[N+](C)(C)CC(=O)[O-]` (centres unmarked) [CB—OH, 2-((2-Hydroxy-3-(methacryloyloxy)propyl)dimethylammonio)acetate], for the setting “TFA, 1 h”, the “conversion of CB—OH to CB-ring (in words)” value is “almost complete conversion”. The “time to full conversion into the CB-Ring structure” value (TFA-d) is ≤ 2 h. The half-life at 0.2 M (TFA-d solution, acidic environment, TFA-d / TFA, read-out: half-life of CB—OH (conversion to CB-Ring)) is ~14 min. Further, where the note is “TFA-d, 0.2 M”, the “final conversion to CB-Ring within 160 min” value is on record as “about 93%”. In addition, the “conversion of CB—OH to CB-Ring” value ([D]HAc (acetic acid), 0.2 M, 20 h) stood at 50%.
